# Assay results from article PMC7944402, “Resin-acid derivatives bind to multiple sites on the voltage-sensor domain of the Shaker potassium channel” (The Journal of General Physiology, 2021).
# Tests used:
# [1] = biological target: T1, Shaker KV channel R362Q (Drosophila melanogaster, UniProt P08510, DEL6-46/R362Q); details: Fig. 1 E; ref Ottosson et al., 2017; Silverå Ejneby et al., 2018; cited from earlier work
# T1 construct: expressed in transfected cells; host or cells: Xenopus laevis oocytes (RNA injection)
# [2] = biological target: T2, Shaker KV channel R362Q/R365Q (Drosophila melanogaster, UniProt P08510, DEL6-46/R362Q/R365Q); test: Two-electrode voltage clamp in Xenopus oocytes: R362Q/R365Q; assay type: cell-based; details: 100 μM, pH 7.4, R362Q/R365Q
# T2 construct: expressed in transfected cells; host or cells: Xenopus laevis oocytes (RNA injection)
# Text: (§1) The Shaker H4 channel (GenBank accession no. NM_167595.3; [Kamb et al., 1987]), with removed N-type inactivation due to a Δ6-46 deletion (ShH4IR, in Bluescript II KS(+) plasmid; [Hoshi et al., 1990]), is referred to as the WT Shaker KV channel. Addition of two positively charged arginines (M356R/A359R) at the extracellular top of the voltage sensor increases the effect of charged lipophilic compounds ([Ottosson et al., 2014], [2015], [2017]). […] However, for the resin-acid derivatives studied in the present investigation, R362 reduced the effect. Therefore, we specifically refer to the two added arginines just outside S4 (M356R/A359R) as the 2R motif. Mutations were introduced with site-directed mutagenesis and verified with sequencing as described previously ([Börjesson et al., 2010]). RNA injection and oocyte handling were performed as before ([Börjesson et al., 2010]; [Ottosson et al., 2015]). All animal experiments were approved by the Linköping’s local Animal Care and Use Committee.
# (§2) Electrophysiological experiments were made 1–6 d after RNA injection. K^+ currents were measured with the two-electrode voltage-clamp technique (GeneClamp 500B amplifier; Axon Instruments) as described previously ([Ottosson et al., 2015]; [Silverå Ejneby et al., 2018]). […]
# (§3) The conductance, G(V), was calculated as G(V)=I/(V−VK), (1) where I is the steady-state current measured at the end of each test-voltage sweep (100 ms after onset; Clampfit 10.5; Molecular Devices), V is the absolute membrane voltage, and VK is the reversal potential for K^+ ions (set to −80 mV). […] The resin-acid–induced G(V) shift was calculated as V1/2 (compound) − V1/2 (control). The relative change in GMAX was calculated as GMAX (compound) / GMAX (control). The concentration dependence for the G(V) shifts was calculated as ΔV= ΔVMAX/(1 +EC50/c), (3) where ΔV is the voltage shift, ΔVMAX is the voltage shift at saturating concentration, c is the concentration of the tested compound, and EC50 is the concentration at which half-maximum response occurs.
# [3] = biological target: T3, Shaker KV channel R362Q/W454A/F416A (Drosophila melanogaster, UniProt P08510, DEL6-46/F416A/R362Q/W454A); test: Two-electrode voltage clamp in Xenopus oocytes: R362Q/W454A/F416A; assay type: cell-based; details: 100 μM, pH 7.4, R362Q/W454A/F416A
# T3 construct: expressed in transfected cells; host or cells: Xenopus laevis oocytes (RNA injection)
# Text: as §1, §2, §3
# [4] = biological target: T4, Shaker KV channel R362Q/R365Q/W454A/F280I (Drosophila melanogaster, UniProt P08510, DEL6-46/F280I/R362Q/R365Q/W454A); test: Two-electrode voltage clamp in Xenopus oocytes: R362Q/R365Q/W454A/F280I; assay type: cell-based; details: 100 μM, pH 7.4, R362Q/R365Q/W454A/F280I
# T4 construct: expressed in transfected cells; host or cells: Xenopus laevis oocytes (RNA injection)
# Text: as §1, with “Mutations were introduced with site-directed mutagenesis and verified with sequencing as described previously ([Börjesson et al., 2010]). RNA injection and oocyte handling were performed as before ([Börjesson et al., 2010]; [Ottosson et al., 2015]). All animal experiments were approved by the Linköping’s local Animal Care and Use Committee.” left out
# as §2
# The conductance, G(V), was calculated as G(V)=I/(V−VK), (1) where I is the steady-state current measured at the end of each test-voltage sweep (100 ms after onset; Clampfit 10.5; Molecular Devices), V is the absolute membrane voltage, and VK is the reversal potential for K^+ ions (set to −80 mV). […] The resin-acid–induced G(V) shift was calculated as V1/2 (compound) − V1/2 (control). The relative change in GMAX was calculated as GMAX (compound) / GMAX (control). […]
# [5] = biological target: T5, Shaker KV channel with the 2R motif (M356R/A359R) (Drosophila melanogaster, UniProt P08510, A359R/DEL6-46/M356R); test: Two-electrode voltage clamp in Xenopus oocytes: 2R motif channel; assay type: cell-based
# T5 construct: expressed in transfected cells; host or cells: Xenopus laevis oocytes (RNA injection)
# Text: (§4) The Shaker H4 channel (GenBank accession no. NM_167595.3; [Kamb et al., 1987]), with removed N-type inactivation due to a Δ6-46 deletion (ShH4IR, in Bluescript II KS(+) plasmid; [Hoshi et al., 1990]), is referred to as the WT Shaker KV channel. […] Therefore, we specifically refer to the two added arginines just outside S4 (M356R/A359R) as the 2R motif. Mutations were introduced with site-directed mutagenesis and verified with sequencing as described previously ([Börjesson et al., 2010]). RNA injection and oocyte handling were performed as before ([Börjesson et al., 2010]; [Ottosson et al., 2015]). All animal experiments were approved by the Linköping’s local Animal Care and Use Committee.
# (§5) Electrophysiological experiments were made 1–6 d after RNA injection. K^+ currents were measured with the two-electrode voltage-clamp technique (GeneClamp 500B amplifier; Axon Instruments) as described previously ([Ottosson et al., 2015]; [Silverå Ejneby et al., 2018]). The amplifier’s leak compensation was used, and the currents were low-pass filtered at 5 kHz. The control solution contained (in mM) 88 NaCl, 1 KCl, 15 HEPES, 0.4 CaCl2, and 0.8 MgCl2, and pH was set with NaOH. All experiments were made at room temperature (20°C–23°C). The holding potential was set to −80 mV (or −100 mV if the mutant was not fully closed at −80 mV).
# (§6) Stock solutions were stored at −20°C and diluted in control solution just before experiments. The test solution was added to the oocyte bath manually with a syringe. […] To make sure all Wu50 molecules were negatively charged, the pH of the control solution was set to 9.0 before the experiments.
# (§7) The conductance, G(V), was calculated as G(V)=I/(V−VK), (1) where I is the steady-state current measured at the end of each test-voltage sweep (100 ms after onset; Clampfit 10.5; Molecular Devices), V is the absolute membrane voltage, and VK is the reversal potential for K^+ ions (set to −80 mV). The conductance was fitted with a Boltzmann equation (GraphPad Prism 5; GraphPad Software, Inc.) GK(V)=GMAX/{1+exp[(V½−V)/s]}, (2) where GMAX is the amplitude (maximal conductance) of the curve, V is the absolute membrane voltage, V1/2 is the midpoint, and s is the slope. The resin-acid–induced G(V) shift was calculated as V1/2 (compound) − V1/2 (control). The relative change in GMAX was calculated as GMAX (compound) / GMAX (control). The concentration dependence for the G(V) shifts was calculated as ΔV= ΔVMAX/(1 +EC50/c), (3) where ΔV is the voltage shift, ΔVMAX is the voltage shift at saturating concentration, c is the concentration of the tested compound, and EC50 is the concentration at which half-maximum response occurs.
# [6] = biological target: T1, Shaker KV channel R362Q; test: Two-electrode voltage clamp in Xenopus oocytes: R362Q; assay type: cell-based; details: 100 μM, pH 7.4, R362Q
# Text: as §1, §2, §3
# [7] = test system: Shaker KV channel binding sites (S3/S4, S4/pore, residual); test: Additive model of site contributions to the G(V) shift (least squares fit); parameters: species or system Drosophila melanogaster
# Text: We also considered a reduced dataset of five mutants for Wu50 to make the comparison between the two compounds equitable (Table S1).
# The G(V) shift for each mutant was expressed as a sum of contribution from the various sites: ΔVmodel=ΔVS3/S4+ΔVS4/pore+ΔVResidual, (4) where ΔVS3/S4 is the G(V) shift due to compound binding to the S3/S4 site, ΔVS4/pore is the G(V) shift due to compound binding to the S4/pore site, and ΔVResidual is the G(V) shift due to compound binding to other sites, including the top-VSD site.
# Following the assumptions based on observations made using MD simulations, ΔVS3/S4 was set to 0 if the 2R motif was missing (i.e., in the WT channel), ΔVS4/pore could adopt one of four values depending on the type of mutation (R362/W454 = WT configuration, R362Q, W454A, or R362Q/W454A), and ΔVResidual was assumed to be the same for all mutants.
# The model further assumed that there is a residual effect that can be due to binding to the VSD-top site or to any other unidentified site and that the contributions due to binding to the S3/S4 site and the S4/pore site depend upon mutations at this site.
# [8] = biological target: T6, Shaker KV channel W454A (Drosophila melanogaster, UniProt P08510, DEL6-46/W454A); test: Two-electrode voltage clamp in Xenopus oocytes: W454A; assay type: cell-based; details: 100 μM, pH 7.4, W454A
# T6 construct: expressed in transfected cells; host or cells: Xenopus laevis oocytes (RNA injection)
# Text: as §1, §2, §3
# [9] = biological target: T7, Shaker KV channel M356R/A359R/R362Q (Drosophila melanogaster, UniProt P08510, A359R/DEL6-46/M356R/R362Q); test: Two-electrode voltage clamp in Xenopus oocytes: 2R motif/R362Q; assay type: cell-based; details: 100 μM, pH 7.4, M356R/A359R/R362Q
# T7 construct: expressed in transfected cells; host or cells: Xenopus laevis oocytes (RNA injection)
# Text: as §1, §5
# Stock solutions were stored at −20°C and diluted in control solution just before experiments. The test solution was added to the oocyte bath manually with a syringe. […] To make sure all Wu50 molecules were negatively charged, the pH of the control solution was set to 9.0 before the experiments. This pH change had only small effects on channel kinetics and the G(V) relation.
# as §3
# [10] = biological target: T8, WT Shaker KV channel (ShH4IR) (Drosophila melanogaster, UniProt P08510, DEL6-46); test: Two-electrode voltage clamp of Shaker KV channels expressed in Xenopus laevis oocytes: WT; assay type: cell-based; details: for EC50: WT, pH 7.4, concentration-response (Eq. 3), read-out: EC50 of the G(V) shift (apparent affinity)
# T8 construct: expressed in transfected cells; host or cells: Xenopus laevis oocytes (RNA injection)
# Text: as §4, §5, §6, §7
# T8 sequence (P08510 other isoform, or with tags, fused parts or gaps DEL6-46): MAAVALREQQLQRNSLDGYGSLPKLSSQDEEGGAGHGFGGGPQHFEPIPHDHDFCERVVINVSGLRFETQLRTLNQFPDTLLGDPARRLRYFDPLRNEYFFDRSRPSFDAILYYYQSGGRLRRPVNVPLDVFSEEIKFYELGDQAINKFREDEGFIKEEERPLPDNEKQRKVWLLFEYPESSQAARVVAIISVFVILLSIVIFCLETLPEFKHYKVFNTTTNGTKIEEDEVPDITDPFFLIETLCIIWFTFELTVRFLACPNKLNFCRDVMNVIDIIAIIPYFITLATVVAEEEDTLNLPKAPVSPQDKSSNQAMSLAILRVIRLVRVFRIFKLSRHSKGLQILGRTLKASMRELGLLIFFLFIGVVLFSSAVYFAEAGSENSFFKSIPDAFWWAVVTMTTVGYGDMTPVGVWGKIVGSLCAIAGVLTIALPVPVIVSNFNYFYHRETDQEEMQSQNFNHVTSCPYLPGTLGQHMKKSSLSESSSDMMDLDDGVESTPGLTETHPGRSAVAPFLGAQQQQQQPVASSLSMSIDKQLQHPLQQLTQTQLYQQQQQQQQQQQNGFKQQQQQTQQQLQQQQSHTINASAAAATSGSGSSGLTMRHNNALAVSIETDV
# T5 sequence (P08510 other isoform, or with tags, fused parts or gaps DEL6-46/M356R/A359R): as the sequence (P08510 other isoform, or with tags, fused parts or gaps DEL6-46) above, with M315R, A318R counted along it
# T1 sequence (P08510 other isoform, or with tags, fused parts or gaps DEL6-46/R362Q): as the sequence (P08510 other isoform, or with tags, fused parts or gaps DEL6-46) above, with R321Q counted along it
# T7 sequence (P08510 other isoform, or with tags, fused parts or gaps DEL6-46/M356R/A359R/R362Q): as the sequence (P08510 other isoform, or with tags, fused parts or gaps DEL6-46) above, with M315R, A318R, R321Q counted along it
# T4 sequence (P08510 other isoform, or with tags, fused parts or gaps DEL6-46/F280I/R362Q/R365Q/W454A): as the sequence (P08510 other isoform, or with tags, fused parts or gaps DEL6-46) above, with F239I, R321Q, R324Q, W413A counted along it
# T6 sequence (P08510 other isoform, or with tags, fused parts or gaps DEL6-46/W454A): as the sequence (P08510 other isoform, or with tags, fused parts or gaps DEL6-46) above, with W413A counted along it
# T3 sequence (P08510 other isoform, or with tags, fused parts or gaps DEL6-46/R362Q/F416A/W454A): as the sequence (P08510 other isoform, or with tags, fused parts or gaps DEL6-46) above, with R321Q, F375A, W413A counted along it
# T2 sequence (P08510 other isoform, or with tags, fused parts or gaps DEL6-46/R362Q/R365Q): as the sequence (P08510 other isoform, or with tags, fused parts or gaps DEL6-46) above, with R321Q, R324Q counted along it
smiles,measurement,setting,value
"CC/C=C\C/C=C\C/C=C\C/C=C\C/C=C\C/C=C\CCC(=O)O [DHA, docosahexaenoic acid]",Change of the G(V)-shifting effect on neutralization of R362 (R362Q versus WT),[1],no noticeable change
"CC(C)c1ccc2c(c1)CC[C@H]1[C@](C)(C(=O)O)CCC[C@]21C [DHAA, dehydroabietic acid]",Change of the G(V)-shifting effect on neutralization of R362 (R362Q versus WT),[1],increase in effect
CO/N=C1\C[C@H]2[C@](C)(C(=O)O)CCC[C@]2(C)c2cc(Br)c(C(C)C)cc21 [Wu32],Change of the G(V)-shifting effect on neutralization of R362 (R362Q versus WT),[1],increase in effect
CC(C)c1ccc2c(c1)CC[C@H]1[C@](C)(COS(=O)(=O)O)CCC[C@]21C [Wu161],GMAX (rel.),[2],0.99 rel.
same,GMAX (rel.),[3],0.47 rel.
same,GMAX (rel.),[4],0.64 rel.
same,GMAX (rel.),"[5]; 100 μM, pH 7.4, M356R/A359R (=2R)",1.20 rel.
same,EC50,"[5]; 2R motif, pH 7.4, concentration-response (Eq. 3), read-out: EC50 of the G(V) shift (apparent affinity)",36.4 ± 9 µM
same,GMAX (rel.),[6],1.05 rel.
same,ΔVS3/S4 (contribution of the S3/S4 site in the presence of the 2R mutations),[7]; five mutants,−17 mV
same,"ΔVS4/pore, R362Q configuration",[7]; five mutants,0 to −6 mV
same,"ΔVS4/pore, WT S4/pore site",[7]; five mutants,−7 to −13 mV
same,"ΔVS4/pore, W454A configuration",[7]; no clear difference between five-mutants and eight-mutants datasets,+2 to −6 mV
same,GMAX (rel.),[8],0.86 rel.
same,GMAX (rel.),[9],1.19 rel.
same,GMAX (rel.),"[10]; 100 μM, pH 7.4, WT",1.03 rel.
same,EC50,[10],43.7 ± 6.3 µM
C[C@@]1(COS(=O)(=O)O)CCC[C@]2(C)c3cc(Cl)c(Cl)c(Cl)c3CC[C@@H]12 [Wu181],Increase of the maximum G(V) shift by the 2R motif,"[5]; 2R motif versus WT, Wu50 pH 9.0, Wu161 and Wu181 pH 7.4",590%
same,ΔVMAX (maximum G(V) shift),"[5]; 2R motif, pH 7.4, concentration-response (Eq. 3)",−53.6 ± 4.0 mV
same,EC50,[10],1.6 ± 0.6 µM
